≈ marks a conversion by molar mass, not a printed value.
Legend:
[1] = biological target: T1, human soluble guanylate cyclase alpha 1 and beta 1 subunits (sGC) stably expressed in Chinese hamster ovary cells (Homo sapiens, UniProt Q02108+Q02153); assay: sGC cellular activator assay: cGMP in CHO cells expressing human sGC, preincubated with ODQ; assay type: cell-based; conditions: 40 microM ODQ preincubation, 30 min at room temperature, presence or absence of 50% human serum not given, read-out: EC50 nM, Activity of Compounds in Cellular Assay
T1 construct: expressed in transfected cells; host or cells: Chinese hamster ovary cells, stably transfected
T1 sequence (Q02108 1-690 partner): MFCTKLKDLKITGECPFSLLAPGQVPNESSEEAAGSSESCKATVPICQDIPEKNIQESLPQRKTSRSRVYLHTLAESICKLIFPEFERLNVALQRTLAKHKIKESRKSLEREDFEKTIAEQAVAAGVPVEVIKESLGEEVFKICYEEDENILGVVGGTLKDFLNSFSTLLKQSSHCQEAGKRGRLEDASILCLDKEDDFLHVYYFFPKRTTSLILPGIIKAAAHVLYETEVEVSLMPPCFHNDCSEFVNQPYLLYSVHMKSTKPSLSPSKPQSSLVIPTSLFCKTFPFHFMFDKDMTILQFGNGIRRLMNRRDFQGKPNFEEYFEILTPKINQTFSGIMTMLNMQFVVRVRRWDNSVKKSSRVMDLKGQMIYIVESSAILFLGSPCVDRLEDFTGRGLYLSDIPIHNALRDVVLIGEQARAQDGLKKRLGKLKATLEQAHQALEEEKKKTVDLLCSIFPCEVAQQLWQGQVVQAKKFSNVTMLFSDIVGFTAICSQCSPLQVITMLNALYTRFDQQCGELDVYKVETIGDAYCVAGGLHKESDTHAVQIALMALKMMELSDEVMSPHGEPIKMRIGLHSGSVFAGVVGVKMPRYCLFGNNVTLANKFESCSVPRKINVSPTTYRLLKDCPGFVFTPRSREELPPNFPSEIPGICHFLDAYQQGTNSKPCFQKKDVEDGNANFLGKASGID
T1 sequence (Q02153 1-619): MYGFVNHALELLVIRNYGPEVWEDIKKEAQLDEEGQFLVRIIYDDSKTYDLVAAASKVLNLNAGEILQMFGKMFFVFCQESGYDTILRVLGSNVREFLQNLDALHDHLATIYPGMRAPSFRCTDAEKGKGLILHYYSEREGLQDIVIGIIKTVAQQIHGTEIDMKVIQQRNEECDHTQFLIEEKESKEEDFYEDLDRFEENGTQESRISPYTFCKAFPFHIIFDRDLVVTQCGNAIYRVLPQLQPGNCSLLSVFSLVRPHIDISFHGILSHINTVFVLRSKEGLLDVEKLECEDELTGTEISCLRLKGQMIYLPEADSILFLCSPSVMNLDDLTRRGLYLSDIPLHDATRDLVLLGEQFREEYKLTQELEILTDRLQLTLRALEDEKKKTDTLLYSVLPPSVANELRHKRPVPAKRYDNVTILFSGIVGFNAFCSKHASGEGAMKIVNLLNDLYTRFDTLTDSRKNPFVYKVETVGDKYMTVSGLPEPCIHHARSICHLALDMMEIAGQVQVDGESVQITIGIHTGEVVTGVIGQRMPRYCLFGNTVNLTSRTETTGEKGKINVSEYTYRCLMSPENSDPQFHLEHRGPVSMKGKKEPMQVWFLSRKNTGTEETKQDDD
Summary of the method: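 EC50 values derive from HTRF cGMP measurement after test compounds act for thirty minutes at room temperature, with or without 50% human serum. Before dosing, the sGC-transfected CHO cells spend one hour with the inhibitor ODQ (40 microM) in IBMX- and 0.1% BSA-containing buffer.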

[2] = biological target: T2, Recombinant human soluble guanylate cyclase (sGC), alpha 1 / beta 1 subunits, heme-free (Homo sapiens, UniProt Q02108+Q02153); assay: Molecular assay: cGMP formation by heme-free recombinant sGC (CisBio cGMP detection kit); assay type: biochemical; conditions: 300 pM heme-free sGC, 37° C., 60 min, cGMP readout; read-out: EC50 nM, Activity of Compounds in Molecular Assay
T2 construct: histidine tag (C); made in house; host or cells: Sf9 insect cells (baculovirus coinfection)
T2 sequence (Q02108 1-690 partner): T1 sequence (Q02108 1-690 partner)
T2 sequence (Q02153 1-619): T1 sequence (Q02153 1-619)
Summary of the method: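 Heme-free His-tagged sGC (Sf9-expressed, Tween 20-treated lysate) at 300 pM incubated with compounds (1% DMSO) for 60 min at 37° C in MOPS pH 6.8 with 50 nM GTP, IBMX, TCEP. cGMP quantified by HTRF against calibration curve; EC50 from combined undiluted/diluted values.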

[3] = Assessment of solubility: HT solubility in pION buffer, UV spectrophotometry; conditions: kinetic from dmso stock
[4] = pION system solution buffer, pH 4.5, pH 4.5, aqueous buffer, Solubility (pH 4.5), pH 4.5 buffer, 16-19 h incubation, 1.0% DMSO
[5] = pION system solution buffer, pH 7.4, pH 7.4, aqueous buffer, Solubility (pH 7.4), pH 7.4 buffer, 16-19 h incubation, 1.0% DMSO
[6] = pH 6.8, aqueous buffer, Solubility (pH 6.8), pH 6.8

Compound | EC50 [1] [nM] | EC50 [2] [nM] | solubility [3, 4] [µg/mL] | solubility [3, 5] [µg/mL] | solubility [3, 6] [µg/mL]
Cc1ccc(OCc2ccc(CN3CCS(=O)(=O)CC3)cc2C)c(-c2csc(N3CCC(C(=O)O)C(C)C3)n2)c1 (stereo not shown) [Compound 204] | 17 | 28 | 0.35 (≈ 0.6 µM) | 54 (≈ 92.5 µM) | 
Cc1cc(C(=O)N2CCCCC2)ccc1COc1c(C)cccc1-c1csc(N2C3CCC2CC(C(=O)O)C3)n1 (stereo not shown) [Compound 209] | 96 | 270 | 5.1 (≈ 9.11 µM) | > 55 | 
Cc1ccc(OCc2ccc(CN3CCS(=O)(=O)CC3)cc2C)c(-c2csc(N3CCCC(C(=O)O)CC3)n2)c1 (stereo not shown) [Compound 234] | 7.9 | 6 | 3.3 (≈ 5.65 µM) | > 58 | 
Cc1ccc(OCc2ccc(CN3CCS(=O)(=O)CC3)cc2C)c(-c2csc(N3CCC4(C(=O)O)CC4C3)n2)c1 (stereo not shown) [Compound 217] | 8.7 | 49 | 0.95 (≈ 1.63 µM) | 34 (≈ 58.4 µM) | 
Cc1ccc(OCc2ccc(CN3CCOCC3)cc2C)c(-c2csc(N3CCC4(C(=O)O)CC4C3)n2)c1 (stereo not shown) [Compound 218] | 18 | 170 | > 64 | 39 (≈ 73.1 µM) | 
Cc1cc(CN2CCOCC2)ccc1COc1c(C)cccc1-c1csc(N2C[C@H]3CC[C@@H](C2)[C@H]3C(=O)O)n1 [Compound 206] | 88 | 170 | > 58 | > 58 | 
Cc1ccc(OCc2ccc(C(=O)N3CCCCC3)cc2C)c(-c2csc(N3C[C@H]4C[C@@H](C3)[C@H]4C(=O)O)n2)c1 [Compound 236] | 79 | 190 | 6.6 (≈ 12.1 µM) | > 54 | 
Cc1ccc(OCc2ccc(CN3CCS(=O)(=O)CC3)cc2C)c(-c2csc(N3C[C@H]4C[C@@H](C3)[C@H]4C(=O)O)n2)c1 [Compound 235] | 57 | 47 | 8.1 (≈ 13.9 µM) | > 58 | 
Cc1ccc(OCc2ccc(CN3CCS(=O)(=O)CC3)cc2C)c(-c2csc(N3CCC(CC(=O)O)CC3)n2)c1 [Compound 219] | 300 | 1000 | 2.4 (≈ 4.11 µM) | 41 (≈ 70.2 µM) | 
Cc1cc(C(=O)N2CCCCC2)ccc1COc1ccc(Cl)cc1-c1csc(N2CCC(C(=O)O)CC2)n1 [Compound 271] | 19 | 45 | 3.7 (≈ 6.68 µM) | 21 (≈ 37.9 µM) | 
Cc1cc(CN2CCS(=O)(=O)CC2)ccc1COc1c(C)cccc1-c1csc(N2C[C@H]3CC[C@@H](C2)[C@H]3C(=O)O)n1 [Compound 203] | 68 | 23 | 3 (≈ 5.04 µM) | > 59 | 
Cc1cc(CN2CCOCC2)ccc1COc1c(C)cccc1-c1csc(N2C3CCC2CC(C(=O)O)C3)n1 (stereo not shown) [Compound 210] | 430 | 350 | > 58 | > 58 | 
Cc1cc(CN2CCS(=O)(=O)CC2)ccc1COc1ccc(Cl)cc1-c1csc(N2C3CCC2CC(C(=O)O)C3)n1 (stereo not shown) [Compound 207] | 93 | 170 | 0.95 (≈ 1.54 µM) | 30 (≈ 48.7 µM) | 
Cc1ccc(OCc2ccc(C(=O)N3CCCCC3)cc2C)c(-c2csc(N[C@@H]3CC[C@H](C(=O)O)C3)n2)c1 [Compound 239] | 650 | 2900 | 2.7 (≈ 5.06 µM) | > 53 | 
Cc1cc(CN2CCS(=O)(=O)CC2)ccc1COc1ccccc1-c1csc(N2CCC(C(=O)O)CC2)n1 [Compound 272] | 110 | 120 | 14 (≈ 25.2 µM) | > 160 | 
Cc1cc(CN2CCS(=O)(=O)CC2)ccc1COc1ccc(Cl)cc1-c1csc(N2CC3CCC(C2)C3C(=O)O)n1 (stereo not shown) [Compound 211] | 190 | 370 | 1.4 (≈ 2.27 µM) | 17 (≈ 27.6 µM) | 
Cc1ccc(OCc2ccc(CN3CCOCC3)cc2C)c(-c2csc(N3C[C@H]4C[C@@H](C3)[C@H]4C(=O)O)n2)c1 [Compound 237] | 130 | 240 | > 53 | > 53 | 
Cc1cc(CN2CCS(=O)(=O)CC2)ccc1COc1c(C)cccc1-c1csc(N2C3CCC2CC(C(=O)O)C3)n1 (stereo not shown) [Compound 205] | 200 | 80 | 9.5 (≈ 15.9 µM) | > 59 | 

The remaining lines, values ahead:

EC50 [1] [nM] | EC50 [2] [nM] | solubility [3, 4] [µg/mL] | solubility [3, 5] [µg/mL] | solubility [3, 6] [µg/mL] | Compound
170 | 260 | > 56 | > 56 |  | Cc1ccc(OCc2ccc(CN3CCN4CCCC4C3)cc2C)c(-c2csc(N3CCC(C(=O)O)CC3)n2)c1 (stereo not shown) [Compound 350]
16 | 74 | 21 (≈ 35.5 µM) | 41 (≈ 69.3 µM) |  | Cc1ccc(OCc2ccc(CN3CCOCC3)cc2OC(F)(F)F)c(-c2csc(N3CCC(C(=O)O)CC3)n2)c1 [Compound 277]
140 | 470 | > 53 | 38 (≈ 70.7 µM) |  | Cc1ccc(OCc2ccc(CN3CCC(F)CC3)cc2C)c(-c2csc(N3CCC(C(=O)O)CC3)n2)c1 [Compound 353]
76 | 14 | 22 (≈ 36.7 µM) | > 59 |  | Cc1ccc(OCc2ccc(CN3CCN(C(=O)C4CC4)CC3)cc2C#N)c(-c2csc(N3CCC(C(=O)O)CC3)n2)c1 [Compound 352]
670 | 1800 | 0.6 (≈ 1 µM) | 4 (≈ 6.67 µM) |  | Cc1cc(CN2CCS(=O)(=O)CC2)ccc1COc1ccc(F)cc1-c1csc(N2CC3CCC(C2)C3C(=O)O)n1 (stereo not shown) [Compound 275]
570 | 320 | 7.3 (≈ 12.6 µM) | > 82 |  | Cc1cc(CN2CCS(=O)(=O)CC2)ccc1COc1ccc(C#N)cc1-c1csc(N2CCC(C(=O)O)CC2)n1 [Compound 273]
15 |  | < 0.1 |  | 64 (≈ 111 µM) | Cc1ccc(OCc2ccc(C(=O)N3CCCOCC3)cc2C)c(-c2csc(N3C[C@H]4CC[C@@H](C3)[C@H]4C(=O)O)n2)c1 [Compound 316]
67 |  | 0.46 (≈ 0.777 µM) | > 54 | 36 (≈ 60.8 µM) | Cc1ccc(OCc2ccc(C(=O)N(C)CC(C)(C)CO)cc2C)c(-c2csc(N3C[C@H]4CC[C@@H](C3)[C@H]4C(=O)O)n2)c1 [Compound 346]
28 |  | < 0.1 |  | 4.6 (≈ 8.19 µM) | Cc1ccc(OCc2ccc(C(=O)N3CCOCC3)c(C)c2)c(-c2csc(N3C[C@H]4CC[C@@H](C3)[C@H]4C(=O)O)n2)c1 [Compound 281]
60 |  | < 0.1 |  | 0.1 (≈ 0.179 µM) | Cc1ccc(OCc2ccc(C(=O)N3CCCCC3)c(C)c2)c(-c2csc(N3C[C@H]4CC[C@@H](C3)[C@H]4C(=O)O)n2)c1 [Compound 283]
52 |  | < 0.1 |  | 40 (≈ 73.4 µM) | Cc1ccc(OCc2ccc(C(=O)N(C)CC#N)cc2C)c(-c2csc(N3C[C@H]4CC[C@@H](C3)[C@H]4C(=O)O)n2)c1 [Compound 330]
